Here are results for 14 molecules from PubChem BioAssay AID1189 (EPA DSSTox, 2008).

Each structure is given as a SMILES string. Activity calls are given as the source filed them.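 How the source made its calls: active means a tumor-causing dose value with its tumor site reported for any sex and species group of a rodent or other animal cancer study; inconclusive means only studies judged inadequate by the national testing program; inactive means tested in at least one study, none positive.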

The nature of this series: DSSTox (CPDBAS) Carcinogenic Potency Database Summary SingleCellCall Results. Conditions: animal chronic carcinogenicity bioassays, CPDB summary call. In short, it runs like this: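 Literature-derived summary: each substance receives an overall carcinogenic/non-carcinogenic category drawn from long-term bioassays in rats, mice, hamsters, dogs or primates, using the most positive sex-species experiment and minimal evidence criteria.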
With `BrCCBr`, the outcome was “active; inactive”.
The result for `N/C(=N\O)c1ccc([N+](=O)[O-])o1` reads “inactive”; that for `CC(=O)Nc1ccc(C(=O)CCl)cc1`, “inactive”; that for `COc1ccc(C)cc1N`, “active”.
Then `COc1c2occc2cc2ccc(=O)oc12`, with “active”; and `Cc1cc(=O)[nH]c(=S)[nH]1`, with “active”; and `CN(N=O)c1ncnc2nc[nH]c12`, with “active”.
Then `O=NN1CCCN(N=O)CC1`, with “active”; and `S=C(SN1CCOCC1)N1CCOCC1`, with “active”.
`CC1(C)S[C@@H]2[C@H](NC(=O)COc3ccccc3)C(=O)N2[C@H]1C(=O)O`: the outcome was inactive.
`O=S(=O)(O)c1cc(S(=O)(=O)O)c2c(N=Nc3ccccc3)c(O)ccc2c1`: the result was inactive.
As to `CCCCCCCCCCCC[N+](C)(C)[O-]`, the result was inactive.
Then `[C-]1=CC=CC1.[C-]1=CC=CC1.[Cl-].[Cl-].[Ti+4]`, with “inactive; active”; and `NC(=O)c1ccncc1`, with “inactive”.
